These results are taken from paper PMC9147192, “Small Molecule Arranged Thermal Proximity Coaggregation (smarTPCA)—A Novel Approach to Characterize Protein–Protein Interactions in Living Cells by Similar Isothermal Dose–Responses” (International Journal of Molecular Sciences, 2022).

The target of assay [1] is TRAPPC4 (Homo sapiens, UniProt Q9Y296). Description: TPP-CCR in living HL-60 cells.
Assay [2] addresses T1, VAPA (Homo sapiens, UniProt Q9P0L0).
T1 construct: dose–responses (mean over replicates), derived from TPP-CCR experiments in living cells; endogenous in cells; host or cells: HL-60 cells (ATCC No. CCL-240)
T1 sequence (Q9P0L0 1-249): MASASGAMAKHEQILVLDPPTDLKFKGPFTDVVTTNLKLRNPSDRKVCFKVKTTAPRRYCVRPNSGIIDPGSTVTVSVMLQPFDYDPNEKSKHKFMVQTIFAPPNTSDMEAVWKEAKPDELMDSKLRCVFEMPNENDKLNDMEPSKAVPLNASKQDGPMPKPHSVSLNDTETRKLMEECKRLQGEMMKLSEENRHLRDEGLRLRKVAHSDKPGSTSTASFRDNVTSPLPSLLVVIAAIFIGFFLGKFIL
Briefly: TPP-CCR in living HL-60 cells. The assay is classed as cell-based.

In assay [3] the test system is MYLK. More on the design: method as in PMID 22037378. As to conditions: cited from earlier work.
[4] abbreviates: living HL-60 cells, […] °C, TMT-MS.

Molecules are shown by their SMILES.

Chain of TRAPPC4 (Q9Y296 whole entry): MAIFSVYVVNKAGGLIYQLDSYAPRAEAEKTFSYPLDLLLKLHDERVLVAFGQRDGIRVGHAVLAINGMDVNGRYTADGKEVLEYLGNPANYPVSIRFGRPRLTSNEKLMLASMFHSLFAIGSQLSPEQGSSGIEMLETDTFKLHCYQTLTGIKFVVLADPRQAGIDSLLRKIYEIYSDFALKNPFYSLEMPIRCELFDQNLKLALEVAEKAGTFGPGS

As for `Cn1c(NC[C@@H](N)Cc2ccccc2)nc(-c2ccncc2)c(-c2ccc3ccccc3c2)c1=O` [AMG-548], the EC50 in assay [1] was 407 nM. Also, the “Hill slope (TRAPPC4)” value in assay [1] (setting [4]) was found to be 0.43.

With `Cc1cnc(Nc2ccc(F)cc2Cl)nc1-c1c[nH]c(C(=O)N[C@H](CO)c2cccc(Cl)c2)c1` [ERK 11e], the Hill slope in assay [2] (TPP-CCR, living cells, VAPA) came out at 0.66. In assay [2] (setting [4]), the EC50 is 1550 nM and the “Hill slope (VAPA)” value came out at 0.66.

Take `C[S+]([O-])c1ccc(-c2nc(-c3ccncc3)c(-c3ccc(F)cc3)[nH]2)cc1` (stereo not drawn) [SB203580]: in assay [3], the “activity towards MYLK” value is “inactivity”.

What is called EC50 is the concentration at which the effect is half-maximal. Read a low EC50 as an effect from little substance. What is called Hill slope is a measure of the steepness of the concentration-response curve.
